The values that follow come from US5719151A, “Substituted benzene compounds” (priority 1990, dated 1998).

Data set [1] concerns the target T1, poly(ADP-ribose)polymerase (Homo sapiens, UniProt P09874). Kind of data set: Determination of inhibitory effect on poly(ADP-ribose)polymerase (enzyme activity, Ki, Km). It counts as biochemical. Particulars: for Ki: poly(ADP-ribose)polymerase, read-out: Ki (Inhibition Constant); for inhibition at 5 µM / inhibition at 1 µM / inhibition at 2.5 µM: read-out: Inhibitor Activity (%). As to the method:
The enzyme activity was assayed by standard procedures (Murray, B. et al., Mutation Research (1986) 165:191-198). This reference also describes the estimation of the Km (Michaelis Constant) values. The estimation of the Ki (inhibitory constant) values was performed by calculating the Km value in the presence or absence of known concentrations of the enzyme inhibitor. Standard biochemical calculations were then used to calculate the Ki value. The smaller K1 values indicate stronger inhibition. The degree of enzyme inhibition shown in the Table was estimated by measuring the enzyme activity in the presence and absence of the indicated concentrations of inhibitor.

The test system of data set [2] is nuclear poly(ADP-Ribose)polymerase. Conditions: Oikawa 1980; Lindahl-Kiessling & Shall 1987; cited from earlier work.
Data set [3] has as its target T1, poly(ADP-ribose)polymerase. Particulars: Farzeneh 1988, cited from earlier work.
Data set [4] concerns the target T1, poly(ADP-ribose)polymerase. Briefly: Formation of covalent compounds (with the enzyme). It counts as biochemical. Particulars: for covalent compound with the enzyme: specific covalent inhibition.
Data set [5] relates to Trypanosoma brucei rhodesiense. Kind of data set: Growth of Trypanosoma brucei rhodesiense in axenic culture (growth inhibition). It counts as cell-based. As to the method:
1. TRYPANOSOMES: Stabilates of two clones, GUP 2889 and GUP 2814 were used.
Prior to propagation in vitro cell free culture conditions the parasites from stabilates were expanded in CD1 (8-9 week old) female mice. Infected mouse blood obtained by cardiac puncture in EMEM* with 20 U/ml heparin was used for the preparation of blood smears for immunofluorescence analysis.
Antibody mediated lysis of a specific VAT of bloodstream form trypanosomes was performed by incubating an appropriate aliquot of a recently prepared trypanosome suspension at room temperature for 1 hour, in appropriately diluted specific antibody and guinea pig complement. The trypanosomes were observed and counted with inverted phase-contrast microscopy at a magnification of 150× to check for viability and to observe lysed trypanosomes, which appeared stumpy and vacuolated.
Cultures were initiated with aliquots of the above prepared trypanosome suspension. Duplicate T25 flasks, with 10 ml of medium were prepared for each experimental parameter examined. In each experiment the trypanosome density was determined at the initiation of the culture and at the end of the axenic culture period (usually after 18-24 hours) using a Neubaurer haemocytometer.
The instantaneous rate of switching/cell/generation, σi, has been calculated. These values of σ are estimates of the per capita rate for switching to minor VATs. However, these estimates have been made in populations manipulated to consist of a major VAT, the prevalence of which is much higher than that of minor VATs; switching from minor to major VATs has therefore been assumed to be negligible, as has interswitching between minor VATs. Growth rates, r, have been expressed as population doubling times Td, where Td=loge2/r. Switching rates values are presented in the tables as finite, of, rate estimates.
Two clones of Trypanosoma brucei rhodesiense, GUP 2889 and […] were initiated in culture with viable trypanosomes after in vitro trypanolysis of heterotype VAT 1.22 with GUPM 27.1 monoclonal antibody. Viable populations of these trypanosomes were incubated with various concentrations of the poly(ADP-Ribose)polymerase inhibitors. The effect of each concentration of inhibitor was tested in duplicate in T25 culture flasks set up for the axenic culture inhibition experiments. Growth was monitored after 24 hours of incubation at 37° C. in 4-5% CO2 in air. Relative growth inhibition and frequency of antigenic switching of were calculated.
In this assay a continuously growing bloodstream form trypanosome population was incubated in serial inhibitor dilutions in T25 culture flasks using an inoculum of 2×10^4 ·1×10^5 trypanosomes per ml. After an incubation period of 24-48 hours in axenic culture at 37° C. in a 4-5% CO2 incubator, trypanosomes were counted using a haemocytometer and growth inhibition was determined based on the number of generations (kt) of inhibitor treated cultures compared to controls. […] Growth is reduced by up to 17% when 3-N-formylluminol(3-N-FL) is present in the concentration range of 50-400 μM, Table 7.

In data set [6] the target is T1, poly(ADP-ribose)polymerase. Particulars: X-ray or bleomycin exposure; cited from earlier work.
For data set [7], the system named is NC(=O)c1ccc[n+]([C@@H]2O[C@H](COP(=O)([O-])OP(=O)(O)OC[C@H]3O[C@@H](n4cnc5c(N)ncnc54)[C@H](O)[C@@H]3O)[C@@H](O)[C@H]2O)c1. Briefly: Determination of inhibitory effect on poly(ADP-ribose)polymerase (enzyme activity, Ki, Km). The class given is biochemical. Particulars: other: same assay as Table 5.

T1 sequence (P09874 whole entry): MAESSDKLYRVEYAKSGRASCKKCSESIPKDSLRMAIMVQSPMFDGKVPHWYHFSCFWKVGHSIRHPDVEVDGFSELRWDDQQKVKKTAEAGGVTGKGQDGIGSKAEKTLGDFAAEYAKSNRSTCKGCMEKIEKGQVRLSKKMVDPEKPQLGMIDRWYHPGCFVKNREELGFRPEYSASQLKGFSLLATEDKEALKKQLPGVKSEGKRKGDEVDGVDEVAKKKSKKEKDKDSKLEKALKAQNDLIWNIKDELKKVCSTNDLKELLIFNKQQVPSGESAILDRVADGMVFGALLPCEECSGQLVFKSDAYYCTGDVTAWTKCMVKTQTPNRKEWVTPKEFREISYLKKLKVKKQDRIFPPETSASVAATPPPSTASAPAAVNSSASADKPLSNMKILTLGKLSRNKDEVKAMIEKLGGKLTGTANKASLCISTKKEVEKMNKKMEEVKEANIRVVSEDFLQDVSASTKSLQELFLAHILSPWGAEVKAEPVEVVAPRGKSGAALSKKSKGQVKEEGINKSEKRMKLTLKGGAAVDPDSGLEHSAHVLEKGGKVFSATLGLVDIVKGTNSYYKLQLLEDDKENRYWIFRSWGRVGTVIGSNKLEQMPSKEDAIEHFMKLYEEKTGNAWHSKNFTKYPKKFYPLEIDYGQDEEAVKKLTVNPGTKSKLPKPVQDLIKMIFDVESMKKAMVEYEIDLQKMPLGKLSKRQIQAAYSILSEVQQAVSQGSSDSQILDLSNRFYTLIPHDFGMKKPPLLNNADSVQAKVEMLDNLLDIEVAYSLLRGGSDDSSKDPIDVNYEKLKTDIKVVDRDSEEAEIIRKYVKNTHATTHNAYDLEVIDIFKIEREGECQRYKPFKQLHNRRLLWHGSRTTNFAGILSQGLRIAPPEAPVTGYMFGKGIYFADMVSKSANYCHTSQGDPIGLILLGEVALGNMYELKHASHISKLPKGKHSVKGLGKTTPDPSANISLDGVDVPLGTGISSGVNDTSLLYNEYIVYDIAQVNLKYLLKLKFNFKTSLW

Take `CC(=O)Nc1cccc(C(N)=O)c1` [3-acetylaminobenzamide, reference compound]: the Ki in data set [1] came to 3200 ± 410 nM.

As to `NC(=O)c1cccc(N)c1` [3-aminobenzamide], in data set [2], the “spontaneous sister chromatid exchanges” value was “large increase in spontaneous sister chromatid exchanges”. `COc1cccc(C(N)=O)c1` [3-methoxybenzamide]: the “integration of foreign DNA into the genome” value in data set [3] (non-homologous/illegitimate DNA recombination) was “blocked the integration of foreign DNA into the genome”. The “uptake and expression of foreign DNA” value in data set [3] (introduced via plasmids) was “not affected”.

With `CCC(=O)Nc1cccc(C(N)=O)c1` [3-propionylaminobenzamide, reference compound], in data set [1], the Ki came to 2490 ± 300 nM.

As to `C=CC(=O)Nc1cccc(C(N)=O)c1` [Compound 4, 3-propenoylaminobenzamide], in data set [4], the “covalent compound with the enzyme” value is “act by forming a covalent compound with the enzyme specifically and thus inhibit the enzyme”.

Regarding `NC(=O)c1cccc(NC(=O)CCCl)c1` [Compound 7], the “covalent compound with the enzyme” value in data set [4] is “act by forming a covalent compound with the enzyme specifically and thus inhibit the enzyme”.

As to `NC(=O)Nc1cccc(C(N)=O)c1` [Compound 8, 3-ureidobenzamide], the inhibition at 5 µM in data set [1] was 61%. On the same count and under the same terms, in the case of `CNC(=O)Nc1cccc(C(N)=O)c1` [Compound 9, 3-methylureidobenzamide] it was 61%. Take `C=CC(=O)Nc1cccc(C(=O)O)c1` [Compound 12, 3-propenoylaminobenzoic acid]: in data set [1], the “enzyme inhibition (in words)” value is on record as “not enzyme inhibitors”. Besides, in data set [4], the “ability to form covalent compounds” value is recorded as “form covalent compounds”. As for `NC(=O)c1cccc(NC(=O)CCl)c1` [Compound 14, 3-chloroacetylaminobenzamide], the “covalent compound with the enzyme” value in data set [4] was “act by forming a covalent compound with the enzyme specifically and thus inhibit the enzyme”. In the case of `NC(=O)c1cccc(NC(=O)CBr)c1` [Compound 15, 3-bromoacetylaminobenzamide], the “covalent compound with the enzyme” value in data set [4] is “act by forming a covalent compound with the enzyme specifically and thus inhibit the enzyme”. Still for that read-out and setting: under `NC(=O)c1cccc(NC(=O)CCBr)c1` [Compound 16] stands “act by forming a covalent compound with the enzyme specifically and thus inhibit the enzyme”. As for `CN(N=O)C(=O)Nc1cccc(C(N)=O)c1` [Compound 19, 3(N-methyl,N-nitroso ureido)benzamide], the “covalent compound with the enzyme” value in data set [4] was “act by forming a covalent compound with the enzyme specifically and thus inhibit the enzyme”. For the molecule `CN(N=O)C(=O)Nc1ccc(C(N)=O)cc1` [Compound 20, 4(N-methyl,N-nitroso ureido)benzamide], the “enzyme inhibition (in words)” value in data set [1] was “not enzyme inhibitors”. The “ability to form covalent compounds” value in data set [4] is on record as “form covalent compounds”. As for `CCOC(=O)c1cccc(NC(=O)N(C)N=O)c1` [Compound 21, Ethyl,3-(N-methyl,N-nitrosoureido)benzoate], the “enzyme inhibition (in words)” value in data set [1] is listed as “not enzyme inhibitors”. Also, the “ability to form covalent compounds” value in data set [4] was “form covalent compounds”. In the case of `O=CNc1cccc2c(=O)[nH][nH]c(=O)c12` [Compound 22, 5-formylamino-2,3-dihydro-1,4-phthalazinedione], in data set [1], the inhibition at 1 µM turned out to be 54%, the inhibition at 2.5 µM came to 71% and the Ki worked out at 518 ± 40 nM. Moreover, in data set [5] (50-400 μM), the “growth reduced by up to” value is “up to 17%”. The activity at 50 µM in data set [5] (Trypanosoma brucei, RHODESIENSE, 50 μM, n = 8, control 1.00, read-out: Relative Growth Rate (S.D., n)) was found to be 121 ± 13%. Moreover, the activity at 100 µM in data set [5] (Trypanosoma brucei, RHODESIENSE, 100 μM, n = 8, control 1.00, read-out: Relative Growth Rate (S.D., n)) amounted to 91 ± 22%. Moreover, the activity at 250 µM in data set [5] (Trypanosoma brucei, RHODESIENSE, 250 μM, n = 8, control 1.00, read-out: Relative Growth Rate (S.D., n)) worked out at 83 ± 42%. The activity at 400 µM in data set [5] (Trypanosoma brucei, RHODESIENSE, 400 μM, n = 4, control 1.00, read-out: Relative Growth Rate (S.D., n)) is 85 ± 4%. In the case of `N=C(N)Nc1cccc(C(N)=O)c1` [Compound 26, 3-(guanidino)benzamide], in data set [1], the inhibition at 5 µM was found to be 32%. Regarding `O=c1[nH]nc(O)c2cccc(O)c12` [Compound 27, 1,5-dihydroxy-3-hydro-4-phthalazinone], in data set [1], the inhibition at 1 µM was determined as 47%, the inhibition at 2.5 µM stood at 71% and the inhibition at 5 µM came out at 82%.

On to `NC(=O)c1cccnc1` [nicotinamide], for which the “recovery of the damaged cells” value in data set [6] is listed as “inhibit recovery of the damaged cells”.

For the molecule “poly(ADP-ribose)polymerase (Homo sapiens)”, the Km in data set [7] came out at 100 ± 13.7 µM.

One may read the Ki as the dissociation constant of the complex between target and ligand, obtained from inhibition or displacement. For orientation: Km means the substrate concentration at which the rate is half of its maximum.
